Assays:
ctRAGE = ctRAGE (Homo sapiens (Human), UniProt Q15109); assay: Fluorescence binding assay (native tryptophan fluorescence titration); design: key to Fluorescent Binding Assay, Kd (nM): ***: No binding; details: 10 nM ctRAGE, pH 7.0, 5% DMSO; for Kd: read-out: Fluorescent Binding Assay, Kd
Method: Native tryptophan fluorescence experiments were conducted using a Horiba Jobin Yvon Fluorolog spectrofluorometer. 1 mM of compound was dissolved in 10 mM phosphate buffer [pH 7.0] and 50% DMSO. ctRAGE was bacterially expressed and purified as described^1. 10 nM ctRAGE solution was individually titrated from 0.1 nM-100 μM with the compounds in 100 μL of 10 mM phosphate buffer [pH 7.0] and 5% DMSO. The excitation and emission wavelengths were 280 nm and 352 nm, respectively. Dissociation constants, Kd, were estimated from the changes in peak fluorescence intensities as a function of the free compound concentration by using Prism 5 software (GraphPad). Data were fit to the equation, (F−F0)/Fmax=[compound]/(Kd+[compound]) where F is the fluorescence intensity at a given compound concentration, F0 is the fluorescence intensity of the blank, and Fmax is the maximum fluorescence intensity.

[1] = test system: Murine vascular smooth muscle cells (SMCs); assay: Smooth muscle cell migration assay (wounding assay), RAGE ligand CML-AGE; format: cell-based; design: key to SMC migration Assay, IC50 (nM): ****: No inhibition or bad fit or inhibition out of range; details: CML-AGE 10 μg/ml, 7 h; for IC50: Mus musculus, read-out: SMC migration Assay, IC50
Method: FIG. 4 depicts effects of compounds on RAGE ligand-stimulated migration of murine aortic smooth muscle cells (SMCs). Migration of SMCs after incubation with the indicated RAGE inhibitor compounds or the parent molecule (“C12”) quinolone from the Chem-Bridge library was assessed. SMCs were grown to confluence and serum-starved overnight. The following morning, serum free media was removed and compounds were added (1 μM). Immediately following the addition of compounds, the monolayer was wounded using a p200 pipette tip and allowed to incubate for 1.5 h. Following this incubation, compounds were removed and fresh media containing RAGE ligand, CML-AGE (10 μg/ml), was added for 7 h. All images were measured at TO and T7 h and an area ingrowth of effective migrating cells was calculated. Each compound was tested in three independent wells and each well was photographed in 3 separate locations for a total of 9 images used in assessing area ingrowth. Error bars represent SEM. * indicates p<0.05 comparing CML-AGE vs. CML-AGE and compound treatment and # indicates p<0.001 comparing CML-AGE vs. serum free medium (SFM) vehicle. Note that SFM is the vehicle into which the RAGE ligand, CML-AGE, is added for testing the effect of RAGE ligand.
Murine vascular smooth muscle cells (SMCs) were cultured from the aortas of 10-week old male mice using a modification of the procedure of Travo and Barret^17. SMCs were cultured following an explant protocol in accordance with institutional guidelines. Wild-type murine aortic vascular SMCs were isolated and used between passages 8 to 12. Migration in response to the RAGE ligand CML-AGE (CML, 10 μg/ml) or a general effector, not a RAGE ligand, PDGF-BB, 10 ng/ml (R&D systems, Minneapolis, Minn., USA) was assessed with a wounding assay. Cells were grown to confluence in 12-well plates and starved overnight. The following morning, serum free media was removed and compounds were added. Immediately following the addition of compounds, the monolayer was wounded using a p200 pipette tip and the compounds were allowed to incubate for 1.5 h. Following this incubation, all compounds were removed and fresh media containing RAGE ligand or general effector, PDGF-BB, was added for 7 h. Cells were maintained at 37° C. and 5% CO2. Images were obtained at TO and T7. Each image was measured and an area ingrowth of effective migrating cells was calculated. The SMC migration assay data for representative compounds, Compounds 229 and 247, is depicted in FIGS. 5a and 5b, respectively.

Chain of ctRAGE (Q15109 364-404): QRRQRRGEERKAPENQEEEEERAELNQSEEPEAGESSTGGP

SMILES	Kd (ctRAGE)	IC50 [1]	Fluorescent Binding Assay, Kd (nM) (ctRAGE)	SMC migration Assay, IC50 (nM) [1]
CC(=O)Nc1ccc(-c2cc(CN3CCOCC3)c3ccccc3n2)cc1F [Compound 214, N-(2-fluoro-4-(4-(morpholinomethyl)quinolin-2-yl)phenyl)acetamide]	34 nM	4 nM		
CC(=O)Nc1ccc(-c2cc(CN3CCOCC3)c3ccccc3n2)cc1Cl [Compound 215, N-(2-chloro-4-(4-(morpholinomethyl)quinolin-2-yl)phenyl)acetamide]	27 nM	460 nM		
COc1cc(-c2cc(CN3CCOCC3)c3ccccc3n2)ccc1NC(C)=O [Compound 216, N-(2-methoxy-4-(4-(morpholinomethyl)quinolin-2-yl)phenyl)acetamide]			***	****
CC(=O)Nc1ccc(-c2cc(CN3CCOCC3)c3ccccc3n2)cc1O [Compound 217, N-(2-hydroxy-4-(4-(morpholinomethyl)quinolin-2-yl)phenyl)acetamide]			***	****
CC(=O)Nc1ccc(-c2cc(CN3CCOCC3)c3ccccc3n2)cc1C#N [Compound 218, N-(2-cyano-4-(4-(morpholinomethyl)quinolin-2-yl)phenyl)acetamide]	80 nM	133 nM		
O=C(CO)Nc1ccc(-c2cc(CN3CCOCC3)c3ccccc3n2)cc1 [Compound 219, 2-hydroxy-N-(4-(4-(morpholinomethyl)quinolin-2-yl)phenyl)acetamide]	89 nM			****
COCC(=O)Nc1ccc(-c2cc(CN3CCOCC3)c3ccccc3n2)cc1 [Compound 220, 2-methoxy-N-(4-(4-(morpholinomethyl)quinolin-2-yl)phenyl)acetamide]	22 nM	300 nM		
NCC(=O)Nc1ccc(-c2cc(CN3CCOCC3)c3ccccc3n2)cc1 [Compound 221, 2-amino-N-(4-(4-(morpholinomethyl)quinolin-2-yl)phenyl)acetamide]	34 nM	5000 nM		
CC(=O)NCC(=O)Nc1ccc(-c2cc(CN3CCOCC3)c3ccccc3n2)cc1 [Compound 222, 2-acetamido-N-(4-(4-(morpholinomethyl)quinolin-2-yl)phenyl)acetamide]	32 nM	3200 nM		
CCC(=O)Nc1ccc(-c2cc(CN3CCOCC3)c3ccccc3n2)cc1 [Compound 223, N-(4-(4-(morpholinomethyl)quinolin-2-yl)phenyl)propionamide]	72 nM			
CC(C)C(=O)Nc1ccc(-c2cc(CN3CCOCC3)c3ccccc3n2)cc1 [Compound 224, N-(4-(4-(morpholinomethyl)quinolin-2-yl)phenyl)isobutyramide]	32 nM	99 nM		
CC(=O)Nc1ccc(-c2cc(CN3CCOCC3)c3ccc(F)cc3n2)cc1 [Compound 225, N-(4-(7-fluoro-4-(morpholinomethyl)quinolin-2-yl)phenyl)acetamide]	122 nM	44 nM		
CC(=O)Nc1ccc(-c2cc(CN3CCOCC3)c3ccc(Cl)cc3n2)cc1 [Compound 226, N-(4-(7-chloro-4-(morpholinomethyl)quinolin-2-yl)phenyl)acetamide]	25 nM	3 nM		
CC(=O)Nc1ccc(-c2cc(CN3CCOCC3)c3ccc(C)cc3n2)cc1 [Compound 227, N-(4-(7-methyl-4-(morpholinomethyl)quinolin-2-yl)phenyl)acetamide]	10 nM			****
COc1ccc2c(CN3CCOCC3)cc(-c3ccc(NC(C)=O)cc3)nc2c1 [Compound 228, N-(4-(7-methoxy-4-(morpholinomethyl)quinolin-2-yl)phenyl)acetamide]	122 nM	10 nM		
CC(=O)Nc1ccc(-c2cc(CN3CCOCC3)c3ccc(C#N)cc3n2)cc1 [Compound 229, N-(4-(7-cyano-4-(morpholinomethyl)quinolin-2-yl)phenyl)acetamide]	3 nM	0.2 nM		
CC(=O)Nc1ccc(-c2cc(CN3CCOCC3)c3ccc(C(N)=O)cc3n2)cc1 [Compound 230, 2-(4-acetamidophenyl)-4-(morpholinomethyl)quinoline-7-carboxamide]			***	****
CC(=O)Nc1ccc(-c2cc(CNCCO)c3ccccc3n2)cc1 [Compound 231, N-(4-(4-(((2-hydroxyethyl)amino)methyl)quinolin-2-yl)phenyl)acetamide]	47 nM	18 nM		
CC(=O)Nc1ccc(-c2cc(CN(C)CCO)c3ccccc3n2)cc1 [Compound 232, N-(4-(4-(((2-hydroxyethyl)(methyl)amino)methyl)quinolin-2-yl)phenyl)acetamide]			***	****
COCCNCc1cc(-c2ccc(NC(C)=O)cc2)nc2ccccc12 [Compound 233, N-(4-(4-(((2-methoxyethyl)amino)methyl)quinolin-2-yl)phenyl)acetamide]				****
COCCN(C)Cc1cc(-c2ccc(NC(C)=O)cc2)nc2ccccc12 [Compound 234, N-(4-(4-(((2-methoxyethyl)(methyl)amino)methyl)quinolin-2-yl)phenyl)acetamide]	12 nM	0.4 nM		
CCCNCc1cc(-c2ccc(NC(C)=O)cc2)nc2ccccc12 [Compound 235, N-(4-(4-((propylamino)methyl)quinolin-2-yl)phenyl)acetamide]	76 nM	17 nM		
CCCN(C)Cc1cc(-c2ccc(NC(C)=O)cc2)nc2ccccc12 [Compound 236, N-(4-(4-((methyl(propyl)amino)methyl)quinolin-2-yl)phenyl)acetamide]	56 nM	0.1 nM		
CCCCNCc1cc(-c2ccc(NC(C)=O)cc2)nc2ccccc12 [Compound 237, N-(4-(4-((butylamino)methyl)quinolin-2-yl)phenyl)acetamide]			***	****
COc1ccc2c(CN3CCOCC3)cc(-c3ccc(NC(C)=O)c(Cl)c3)nc2c1 [Compound 257, N-(2-chloro-4-(7-methoxy-4-(morpholinomethyl)quinolin-2-yl)phenyl)acetamide]		1500 nM		
COc1ccc2c(CN3CCOCC3)cc(-c3ccc(NC(C)=O)c(C#N)c3)nc2c1 [Compound 258, N-(2-cyano-4-(7-methoxy-4-(morpholinomethyl)quinolin-2-yl)phenyl)acetamide]		323 nM		
CC(=O)Nc1ccc(-c2cc(CN3CCOCC3)c3ccc(C#N)cc3n2)cc1F [Compound 259, N-(4-(7-cyano-4-(morpholinomethyl)quinolin-2-yl)-2-fluorophenyl)acetamide]				****
CC(=O)Nc1ccc(-c2cc(CN3CCOCC3)c3ccc(C#N)cc3n2)cc1Cl [Compound 260, N-(2-chloro-4-(7-cyano-4-(morpholinomethyl)quinolin-2-yl)phenyl)acetamide]		14 nM		
CC(=O)Nc1ccc(-c2cc(CN3CCOCC3)c3ccc(C#N)cc3n2)cc1C#N [Compound 261, N-(2-cyano-4-(7-cyano-4-(morpholinomethyl)quinolin-2-yl)phenyl)acetamide]		1400 nM		
CCOc1ccc2c(CN3CCOCC3)cc(-c3ccc(NC(C)=O)c(F)c3)nc2c1 [Compound 262, N-(4-(7-ethoxy-4-(morpholinomethyl)quinolin-2-yl)-2-fluorophenyl)acetamide]		2900 nM		
